Results: US10167284B2, “Spirocyclic compounds as agonists of the muscarinic M1 receptor and/or M4 receptor” (HEPTARES THERAPEUTICS LIMITED, priority 2015, dated 2019)

Assays:
[1] = target: T1, human muscarinic M4 receptor (Homo sapiens, UniProt P08173); test: Alphascreen Surefire phospho-ERK1/2 functional assay, M4; format: cell-based; conditions: for M4 % Emax cf. ACh / EC50: CHO cells stably expressing human M4; for M4 % Emax cf. ACh / Emax: Emax relative to ACh; for EC50: phospho-ERK1/2, read-out: pEC50 M4 (converted); for Emax: CHO, read-out: M4 % Emax cf. ACh, CHO cells stably expressing human M4
T1 construct: expressed in transfected cells
T1 sequence (P08173 1-479): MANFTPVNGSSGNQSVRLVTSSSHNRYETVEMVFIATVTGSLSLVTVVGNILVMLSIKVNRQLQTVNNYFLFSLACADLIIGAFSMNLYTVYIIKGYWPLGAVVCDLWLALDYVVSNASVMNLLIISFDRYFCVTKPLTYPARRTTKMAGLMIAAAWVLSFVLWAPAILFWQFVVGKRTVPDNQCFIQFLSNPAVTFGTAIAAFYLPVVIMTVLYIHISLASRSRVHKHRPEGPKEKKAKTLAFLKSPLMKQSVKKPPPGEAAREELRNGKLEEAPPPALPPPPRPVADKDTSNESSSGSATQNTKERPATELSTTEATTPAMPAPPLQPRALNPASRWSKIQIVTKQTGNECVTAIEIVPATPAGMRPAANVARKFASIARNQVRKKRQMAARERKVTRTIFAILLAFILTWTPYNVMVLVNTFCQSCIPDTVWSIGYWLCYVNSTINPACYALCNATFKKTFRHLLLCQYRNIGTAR
Description: CHO cells stably expressing the human muscarinic M1, M2, M3 or M4 receptor were plated (25K/well) onto 96-well tissue culture plates in MEM-alpha+10% dialysed FBS. Once adhered, cells were serum-starved overnight. Agonist stimulation was performed by the addition of 5 μL agonist to the cells for 5 min (37° C.). Media was removed and 50 μL of lysis buffer added. After 15 min, a 4 μL sample was transferred to 384-well plate and 7 μL of detection mixture added. Plates were incubated for 2 h with gentle agitation in the dark and then read on a PHERAstar plate reader.
pEC50 and Emax figures were calculated from the resulting data for each receptor subtype.

[2] = target: T2, human muscarinic M1 receptor (Homo sapiens, UniProt P11229); test: Alphascreen Surefire phospho-ERK1/2 functional assay, M1; format: cell-based; conditions: for M1 % Emax cf. ACh / EC50: CHO cells stably expressing human M1; for M1 % Emax cf. ACh / Emax: Emax relative to ACh; for EC50: phospho-ERK1/2, read-out: pEC50 M1 (converted); for Emax: CHO, read-out: M1 % Emax cf. ACh, CHO cells stably expressing human M1
T2 construct: expressed in transfected cells
T2 sequence (P11229 1-460): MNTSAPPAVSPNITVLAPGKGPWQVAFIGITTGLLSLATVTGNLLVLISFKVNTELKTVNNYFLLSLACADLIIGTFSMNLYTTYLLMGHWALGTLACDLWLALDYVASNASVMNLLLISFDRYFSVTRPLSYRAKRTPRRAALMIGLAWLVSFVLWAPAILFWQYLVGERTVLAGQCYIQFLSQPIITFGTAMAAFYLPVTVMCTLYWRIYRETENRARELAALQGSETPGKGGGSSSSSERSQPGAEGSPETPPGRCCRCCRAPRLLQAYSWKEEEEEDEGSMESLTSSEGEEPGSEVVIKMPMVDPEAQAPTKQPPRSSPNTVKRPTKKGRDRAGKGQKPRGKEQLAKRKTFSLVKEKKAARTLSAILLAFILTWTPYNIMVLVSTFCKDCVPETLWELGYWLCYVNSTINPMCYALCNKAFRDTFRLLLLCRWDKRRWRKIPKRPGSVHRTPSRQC

Row | Compound | M4 % Emax cf. ACh [1] | EC50 [1] [nM] | M1 % Emax cf. ACh [2] | EC50 [2] [nM] | Emax [1] [%] | Emax [2] [%]
1 | CCOC(=O)N1CCC2(CC(N3CCC4(CC3)OC(=O)N(CC)C4CC)C2)C1 (single isomer, unassigned) [4-22 Isomer 2] | (2) % | > 20000 | (1) % | > 20000 |  | 
2 | CCCN1C(=O)OC2(CCN(C3CC4(CCN(C(=O)OCC)C4)C3)CC2)C1CC (single isomer, unassigned) [4-23 Isomer 1] | (33) % | 501 | (9) % | > 20000 |  | 
3 | CCC1NC(=O)CC12CCN(C1CC3(CCN(C(=O)OC)C3)C1)CC2 (single isomer, unassigned) [3-4 Isomer 2] | (36) % | 200 | (71) % | 2000 |  | 
4 | CCCN1C(=O)OC2(CCN(C3CC4(CCN(C(=O)OCC)C4)C3)CC2)C1(C)C (single isomer, unassigned) [4-37 Isomer 2] | (13) % | > 20000 | (29) % | 794 |  | 
5 | CCOC(=O)N1CCC2(CC(N3CCC4(CC3)OC(=O)N(CC)C4CC)C2)C1 (single isomer, unassigned) [4-22 Isomer 1] | (18) % | > 20000 | (13) % | > 20000 |  | 
6 | CCCN1N(C)C(=O)CC12CCN(C1CC3(CCN(C(=O)OCC)C3)C1)CC2 (single isomer, unassigned) [6-10 Isomer 2] |  | 39.8 |  | 1260 | 109 | 90
7 | COC(=O)N1CCC2(CC(N3CCC4(CC3)OC(=O)N3CCCC34)C2)C1 (single isomer, unassigned) [4-45 Isomer 2] |  | 316 |  | 1000 | 36 | 59
8 | CCOC(=O)N1CCC2(CC(N3CCC4(CC3)OC(=O)N(CC#N)C4(C)C)C2)C1 (single isomer, unassigned) [4-42 Isomer 2] |  | 200 |  | > 20000 | 52 | 16
9 | CCOC(=O)N1CCC2(CC(N3CCC4(CC3)OC(=O)NC4CC)C2)C1 (single isomer, unassigned) [4-12 Isomer 2] | (1) % | > 20000 | (0) % | > 20000 |  | 
10 | CCOC(=O)N1CCC2(CC(N3CCC4(CC3)OC(=O)N(C)C4CC)C2)C1 (single isomer, unassigned) [4-20 Isomer 2] | (9) % | > 20000 | (16) % | > 20000 |  | 
11 | CCOC(=O)N1CCC2(CC(N3CCC4(CC3)OC(=O)N(CC)C4(C)C)C2)C1 (single isomer, unassigned) [4-35 Isomer 2] |  | 31.6 |  | 1000 | 108 | 57
12 | CCOC(=O)N1CCC2(CC(N3CCC4(CC3)OC(=O)N(C)C4CC)C2)C1 (single isomer, unassigned) [4-20 Isomer 1] | (42) % | 501 | (57) % | 2000 |  | 
13 | CCOC(=O)N1CCC2(CC(N3CCC4(CC3)OC(=O)NC4(C)C)C2)C1 (single isomer, unassigned) [4-27 Isomer 1] | (59) % | 251 | (65) % | 10000 |  | 
14 | CCOC(=O)N1CC2(CC(N3CCC4(CC3)OC(=O)N3CCCC34)C2)C1 (centres unmarked) [Example 2-5, ethyl 6-(3′-oxotetrahydro-1H-spiro[piperidine-4,1′-pyrrolo[1,2-c][1,3]oxazol]-1-yl)-2-azaspiro[3.3]heptane-2-carboxylate] |  | 126 |  | 1000 | 34 | 28
15 | CCC1N(CC)C(=O)OC12CCN(C1CC3(CCN(C(=O)OC)C3)C1)CC2 (single isomer, unassigned) [4-21 Isomer 2 (racemic)] |  | 200 |  | 794 | 36 | 77
16 | CCOC(=O)N1CCC2(CC(N3CCC4(CC3)OC(=O)NC4Cc3ccccn3)C2)C1 (single isomer, unassigned) [4-19 Isomer 2 (racemic)] |  | 794 |  | 200 | 72 | 98
17 | CCOC(=O)N1CC2(CC(N3CCC4(CC3)OC(=O)NC4(C)C)C2)C1 [Example 2-3, ethyl 6-(4,4-dimethyl-2-oxo-1-oxa-3,8-diazaspiro[4.5]decan-8-yl)-2-azaspiro[3.3]heptane-2-carboxylate] |  | 1000 |  | 3160 | 73 | 92
18 | CCOC(=O)N1CCC2(CC(N3CCC4(CC3)OC(=O)NC43CC(F)(F)C3)C2)C1 (single isomer, unassigned) [4-30 Isomer 1] |  | 158 |  | 1260 | 63 | 49
19 | CC(C)OC(=O)N1CCC2(CC(N3CCC4(CC3)CNC(=O)O4)C2)C1 (single isomer, unassigned) [4-4 Isomer 2] |  | 398 |  | 631 | 24 | 52
20 | CCC1NC(=O)CC12CCN(C1CC3(CCN(C(=O)OC)C3)C1)CC2 (single isomer, unassigned) [3-4 Isomer 1] | (30) % | 316 | (35) % | 3160 |  | 
21 | CCOC(=O)N1CCC2(CC(N3CCC4(CC3)OC(=O)N(CC3CC3)C4CC)C2)C1 (single isomer, unassigned) [4-25 Isomer 2 (racemic)] |  | 126 |  | 794 | 69 | 73
22 | CCOC(=O)N1CCC2(CC(N3CCC4(CC3)CC(=O)NN4C(C)C)C2)C1 (single isomer, unassigned) [6-5 Isomer 2] |  | > 20000 |  | 2000 | 20 | 56
23 | CCOC(=O)N1CCC2(CC(N3CCC4(CC3)CNC(=O)O4)C2)C1 (single isomer, unassigned) [4-3 Isomer 1] | (37) % | 316 | (91) % | 251 |  | 
24 | CCOC(=O)N1CCC2(CC(N3CCC4(CC3)CN(CC(C)C)C(=O)O4)C2)C1 (single isomer, unassigned) [4-9 Isomer 2] |  | 631 |  | 1000 | 76 | 104
25 | CCCN1C(=O)OC2(CCN(C3CC4(CCN(C(=O)OCC)C4)C3)CC2)C1CC (single isomer, unassigned) [4-23 Isomer 2] | (3) % | > 20000 | (5) % | > 20000 |  | 
26 | CCOC(=O)N1CCC2(CC(N3CCC4(CC3)OC(=O)NC4C3CCC3)C2)C1 (single isomer, unassigned) [4-15 Isomer 1 (racemic)] |  | 158 |  | 501 | 87 | 85
27 | CCOC(=O)N1CCC2(CC(N3CCC4(CC3)CC(=O)NN4Cc3ccccc3)C2)C1 (single isomer, unassigned) [6-6 Isomer 1] | (10) % | > 20000 | (36) % | 501 |  | 
28 | CCOC(=O)N1CC2(CC(N3CCC4(CC3)CNC(=O)C4)C2)C1 [Example 1-1, ethyl 6-(3-oxo-2,8-diazaspiro[4.5]dec-8-yl)-2-azaspiro[3.3]heptane-2-carboxylate] |  | > 20000 |  | 316 | 66 | 107
29 | CCOC(=O)N1CCC2(CC(N3CCC4(CC3)CN(C(C)C)C(=O)O4)C2)C1 (single isomer, unassigned) [4-8 Isomer 2] |  | 398 |  | 1260 | 58 | 63
